Data reported in patent publication US10080748B2, “Use of flap inhibitors to reduce neuroinflammation mediated injury in the central nervous system” (Bioscience Pharma Partners, LLC, priority 2014, dated 2018).

Key:
Format in all cases: in vivo
[1] = system: rats subjected to FPI (TBI model); assay: T2-weighted MRI brain swelling (edema) 72 hours after TBI (rat FPI)
Description: (§1) Craniotomy and lateral fluid percussion injury (FPI) were performed using a previously validated and published procedure. Farias S, et al. J. Neurotraum, 26, 1977-1986, 2009; Frey L. C. et al. J. Neurosci. Methods 177, 267-272, 2009. Throughout the specification animals subjected to this protocol are referred to as having a TBI since this treatment protocol is a TBI model. Briefly, rats were anesthetized with 3-5% isoflurane, isosol, VEDCO Inc., St. Joseph, Mo., via nose cone and mounted in a stereotaxic head frame. A 3 millimeter (mm) craniotomy was created and centered at 3 mm caudal to bregma and 3.5 mm left of the sagittal suture, keeping the exposed dura intact. One steel support screw was embedded in the skull on the contralateral side. […] Moistened food pellets were provided after injury, and all animals were monitored daily for well-being and weight changes. […]
For each rat, five slices, 1.2 mm thick, spanning the entire area of injury were used to calculate FPI-related brain swelling. The diameter of the injured, ipsilateral hemisphere was measured from midline to the widest point of the cortex (Fiji/ImageJ, NIH). The difference between the ipsilateral (ipsi) and contralateral (contra) hemisphere diameters was then calculated and normalized to the diameter of the contralateral hemisphere using the formula: {(diameter Ipsi−diameter Contra)/diameter Contra}×100 […]

[2] = system: rats subjected to FPI (TBI model); assay: Hippocampal long-term potentiation (LTP) in slices four days after TBI (rat FPI)
Description: as §1, with “side. A Luer-Lock hub with an inside diameter of 3.5 mm was centered over the craniotomy and bonded to the skull with cyanoacrylate adhesive and capped. Dental acrylic, Snap, Parka, Inc., Edgewood, N.J., was poured around the huh and screw. After the acrylic hardened antibiotic ointment was applied around the cap and the animals were returned to their cages.” for “side.”
Four days after FPI or at the times indicated in the figures for CHI model animals were sacrificed and the brains were rapidly removed and immersed in ice-cold, sucrose containing cutting buffer (87 mM NaCl, 2.5 mM KCl, 7 mM MgCl2, 0.5 mM CaCl2, 1.25 mM NaH2PO4, 25 mM D-glucose, 35 mM sucrose, and 25 mM NaHCO3) for 40-60 seconds to cool the interior of the brain. […] A bipolar tungsten stimulating electrode was placed in the Schaffer collateral (SC) pathway to evoke synaptic field excitatory postsynaptic potentials (fEPSPs) recorded in the stratum radiatum using a nearby glass micropipette filled with aCSF. […]

[3] = system: rats subjected to FPI (TBI model); assay: Rotarod vestibulomotor performance after TBI (rat FPI); conditions: administered 15 minutes after TBI
Description: Craniotomy and lateral fluid percussion injury (FPI) were performed using a previously validated and published procedure. Farias S, et al. J. Neurotraum, 26, 1977-1986, 2009; Frey L. C. et al. J. Neurosci. Methods 177, 267-272, 2009. Throughout the specification animals subjected to this protocol are referred to as having a TBI since this treatment protocol is a TBI model. Briefly, rats were anesthetized with 3-5% isoflurane, isosol, VEDCO Inc., St. Joseph, Mo., via nose cone and mounted in a stereotaxic head frame. A 3 millimeter (mm) craniotomy was created and centered at 3 mm caudal to bregma and 3.5 mm left of the sagittal suture, keeping the exposed dura intact. One steel support screw was embedded in the skull on the contralateral side. A Luer-Lock hub with an inside diameter of 3.5 mm was centered over the craniotomy and bonded to the skull with cyanoacrylate adhesive and capped. Dental acrylic, Snap, Parka, Inc., Edgewood, N.J., was poured around the huh and screw. […] Moistened food pellets were provided after injury, and all animals were monitored daily for well-being and weight changes.
For rotarod testing, the rod's rotation was programmed to accelerate from 0 to 50 rpm over the course of 300 seconds. Four trials were run at each selected time point after injury and the individual trial and mean times for each animal are recorded. […]

**Q.** For `CC(C)c1ccc2c(c1)c(SC(C)(C)C)c(CC(C)(C)C(=O)O)n2Cc1ccc(Cl)cc1` [MK-886, 1-[(4-Chlorophenyl)methyl]-3-[(1,1-dimethylethyl)thio]-α,α-dimethyl-5-(1-methylethyl)-1H-Indole-2-propanoic acid], which normalized brain swelling ([1]; 30 minutes pre-TBI) is on record?
**A.** 4.12+/−0.08%

**Q.** What about the normalized brain swelling ([1]; 60 minutes post-TBI) of the same compound?
**A.** 8.98+/−1.0%

**Q.** What about the “LTP, % of control fEPSP slope at 58-60 min” value (shortened to “LTP, % of control fEPSP slope”) ([2]; 30 minutes post-injury) of the same compound?
**A.** 256.13+/−8.527%

**Q.** And the “LTP, % of control fEPSP slope” value ([2]; 30 minutes pre-injury)?
**A.** 242.75+/−76.94%

**Q.** What about the “LTP, % of control fEPSP slope” value ([2]; 60 minutes post-injury) of the same compound?
**A.** 145.46+/−18.30

**Q.** What about the “vestibulomotor performance on the rotarod compared to vehicle” value [3] of the same compound?
**A.** improved vestibulomotor performance
